{"source": "patent US12325726B2", "about": "“Organic compounds” (priority 2018, dated 2025)", "key": {"[1]": {"assay": "In vivo mouse pharmacokinetics, paired oral co-dosing, plasma and brain", "set-up": "species or system mice", "conditions": "for Cmax / Tmax / AUC / concentration at 0.25 hr / concentration at 0.5 hr / concentration at 1 hr / concentration at 2 hr / concentration at 4 hr / concentration at 6 hr / Kp: 10 mg/kg po co-dosed; for AUC: 0.25-6 hr sampling; for Kp: brain/plasma, read-out: B/P AUC Ratio", "method": "In a first study, the compounds of Examples 2 to 6 are compared to the Compound of Formula A (Example 1) using standard procedures in mice. In each test, two compounds are co-dosed in a single animal and the relative pharmacokinetics in plasma and brain is determined. Each test compound is dissolved in polyethylene glycol 400 vehicle, and administered orally at a dose of 10 mg/kg. After single dose oral administration of the test compounds together, plasma and brain levels are measured at 0.25, 0.5, 1, 2, 4, and 6 hours post-dosing. The mean values for maximum concentration, time to maximum concentration, and Area Under the Curve (AUC) for both compounds are determined. The results are summarized in the tables below for various paired co-dosing experiments: […]"}, "[2]": {"tested_on": "human hepatocyte", "assay": "In vitro human hepatocyte stability assay", "assay_type": "in vitro ADME", "conditions": "human hepatocytes", "method": "The compounds of Examples 1, 2, 5 and 6 are compared in a standard in vitro human hepatocyte stability assay run in duplicate. Compounds are provided as 1 M solutions in DMSO, and concentration of test compound is determined at 0.5, 1.0 and 4.0 hours after addition of the test compound. Results are shown below as a percentage of initial concentration."}, "[3]": {"target": "GABAA receptor", "assay": "[35S]-TBPS binding inhibition (in vitro potency)", "conditions": "inhibition of specific binding of [35S]-TBPS", "method": "(§1) In vitro potency [ability to inhibit the binding of [^35S]-tert-butylbicyclophosphorothionate (TBPS)], rotorod TD50's (dose at which half of animals tested fail to stay on a rotating rod for 1 minute) and the length of time before animals tested are able to pass rotorod test (duration of action) of 3α-Hydroxy-21-(1′-imidazolyl)-3β-methoxymethyl-5α-pregnan-20-one is determined. These methods for measuring in vitro and in vivo activity of compounds of the invention are fully described in U.S. Pat. No. 5,232,917, incorporated herein by reference in its entirety. The TBPS assay gives the in vitro potency of compounds whereas the rotorod assay estimates the sedative/hypnotic activity of compounds. Since the duration of action of a compound is dependent on the dose and will be prolonged at higher doses, the duration of action is measured at the lowest dose at which all of the animals failed the rotorod test. IC50 is the dose of steroid inhibiting 50% of specific binding of [^35S]-tert-butylbicyclophorothionate (TBPS). Rotorod TD50 is the does at which half of animals fail the rotorod test in rat. Duration of action, measured at the lowest dose where all animals failed the rotorod test, is the time required for all animals tested to once again pass the rotorod test."}, "[4]": {"tested_on": "rat", "assay": "Rotorod test (sedative/hypnotic activity, duration of action)", "assay_type": "in vivo", "method": "as §1"}, "[5]": {"conditions": "cited from earlier work"}, "[6]": {"conditions": "brain, read-out: Brain concentration"}, "[7]": {"conditions": "plasma, read-out: Plasma concentration"}}, "note": "Read-outs that look alike come from different tables or passages of the source."}
{"smiles": "[2H]c1nc([2H])n(CC(=O)[C@H]2CC[C@H]3[C@@H]4CC[C@H]5C[C@@](O)(COC)CC[C@]5(C)[C@H]4CC[C@]23C)c1[2H]", "note": "[Example 2, 1-((3R,5S,8R,9S,10S,13S,14S,17S)-3-hydroxy-3-(methoxymethyl)-10,13-dimethylhexadecahydro-1H-cyclopenta[a]phenanthren-17-yl)-2-(1H-imidazol-1-yl-d3)ethan-1-one]", "values": [{"measurement": "brain exposure of drug compared to the non-deuterated compound of Example 1", "setting": "[1]; 10 mg/kg po", "value": "much higher"}, {"measurement": "brain/plasma AUC ratio compared to Example 1", "setting": "[1]; 10 mg/kg po", "value": "much higher"}, {"measurement": "Cmax", "setting": "[1]; brain", "value": 7600, "unit": "ng/g"}, {"measurement": "Tmax", "setting": "[1]; brain", "value": 1, "unit": "h"}, {"measurement": "AUC", "setting": "[1]; brain", "value": 29000, "unit": "ng·h/mL"}, {"measurement": "concentration at 0.25 hr", "setting": "[1]; [6]", "value": 1840, "unit": "ng/g"}, {"measurement": "concentration at 0.5 hr", "setting": "[1]; [6]", "value": 5590, "unit": "ng/g"}, {"measurement": "concentration at 1 hr", "setting": "[1]; [6]", "value": 7600, "unit": "ng/g"}, {"measurement": "concentration at 2 hr", "setting": "[1]; [6]", "value": 6340, "unit": "ng/g"}, {"measurement": "concentration at 4 hr", "setting": "[1]; [6]", "value": 4890, "unit": "ng/g"}, {"measurement": "concentration at 6 hr", "setting": "[1]; [6]", "value": 1410, "unit": "ng/g"}, {"measurement": "Kp", "setting": "[1]", "value": 2.8}, {"measurement": "Cmax", "setting": "[1]; plasma", "value": 2550, "unit": "ng/mL"}, {"measurement": "Tmax", "setting": "[1]; plasma", "value": 1, "unit": "h"}, {"measurement": "AUC", "setting": "[1]; plasma", "value": 10300, "unit": "ng·h/mL"}, {"measurement": "concentration at 0.25 hr", "setting": "[1]; [7]", "value": 1180, "unit": "ng/mL"}, {"measurement": "concentration at 0.5 hr", "setting": "[1]; [7]", "value": 1740, "unit": "ng/mL"}, {"measurement": "concentration at 1 hr", "setting": "[1]; [7]", "value": 2550, "unit": "ng/mL"}, {"measurement": "concentration at 2 hr", "setting": "[1]; [7]", "value": 2120, "unit": "ng/mL"}, {"measurement": "concentration at 4 hr", "setting": "[1]; [7]", "value": 1760, "unit": "ng/mL"}, {"measurement": "concentration at 6 hr", "setting": "[1]; [7]", "value": 774, "unit": "ng/mL"}, {"measurement": "percentage of initial concentration", "setting": "[2]; 0 hr", "value": 100, "unit": "%"}, {"measurement": "percentage of initial concentration", "setting": "[2]; 0.5 hr", "value": 105, "unit": "%"}, {"measurement": "percentage of initial concentration", "setting": "[2]; 1.0 hr", "value": 107, "unit": "%"}, {"measurement": "percentage of initial concentration", "setting": "[2]; 4.0 hr", "value": 92, "unit": "%"}]}
{"smiles": "COC[C@@]1(O)CC[C@@]2(C)[C@@H](CC[C@@H]3[C@@H]2CC[C@]2(C)[C@@H](C(=O)Cn4ccnc4)CC[C@@H]32)C1", "note": "[Example 1, 3α-Hydroxy-21-(1′-imidazolyl)-3β-methoxymethyl-5α-pregnan-20-one]", "values": [{"measurement": "IC50", "setting": "[3]", "value": 138, "unit": "nM"}, {"measurement": "TD50", "setting": "[4]; Rattus norvegicus, po, read-out: rotorod TD50 (po)", "value": 28, "unit": "mg/kg"}, {"measurement": "duration of action", "setting": "[4]; at lowest dose where all animals failed the rotorod test, time until all pass again", "value": 140, "unit": "min"}, {"measurement": "Cmax", "setting": "[1]; brain", "value": 2880, "unit": "ng/g"}, {"measurement": "Tmax", "setting": "[1]; brain", "value": 1, "unit": "h"}, {"measurement": "AUC", "setting": "[1]; brain", "value": 14200, "unit": "ng·h/mL"}, {"measurement": "concentration at 0.25 hr", "setting": "[1]; [6]", "value": 2280, "unit": "ng/g"}, {"measurement": "concentration at 0.5 hr", "setting": "[1]; [6]", "value": 2230, "unit": "ng/g"}, {"measurement": "concentration at 1 hr", "setting": "[1]; [6]", "value": 2880, "unit": "ng/g"}, {"measurement": "concentration at 2 hr", "setting": "[1]; [6]", "value": 2520, "unit": "ng/g"}, {"measurement": "concentration at 4 hr", "setting": "[1]; [6]", "value": 2360, "unit": "ng/g"}, {"measurement": "concentration at 6 hr", "setting": "[1]; [6]", "value": 2090, "unit": "ng/g"}, {"measurement": "Kp", "setting": "[1]", "value": 1.2}, {"measurement": "Cmax", "setting": "[1]; plasma", "value": 2580, "unit": "ng/mL"}, {"measurement": "Tmax", "setting": "[1]; plasma", "value": 1, "unit": "h"}, {"measurement": "AUC", "setting": "[1]; plasma", "value": 11700, "unit": "ng·h/mL"}, {"measurement": "concentration at 0.25 hr", "setting": "[1]; [7]", "value": 2270, "unit": "ng/mL"}, {"measurement": "concentration at 0.5 hr", "setting": "[1]; [7]", "value": 1820, "unit": "ng/mL"}, {"measurement": "concentration at 1 hr", "setting": "[1]; [7]", "value": 2580, "unit": "ng/mL"}, {"measurement": "concentration at 2 hr", "setting": "[1]; [7]", "value": 2100, "unit": "ng/mL"}, {"measurement": "concentration at 4 hr", "setting": "[1]; [7]", "value": 1840, "unit": "ng/mL"}, {"measurement": "concentration at 6 hr", "setting": "[1]; [7]", "value": 1750, "unit": "ng/mL"}, {"measurement": "percentage of initial concentration", "setting": "[2]; 0 hr", "value": 100, "unit": "%"}, {"measurement": "percentage of initial concentration", "setting": "[2]; 0.5 hr", "value": 94, "unit": "%"}, {"measurement": "percentage of initial concentration", "setting": "[2]; 1.0 hr", "value": 90, "unit": "%"}, {"measurement": "percentage of initial concentration", "setting": "[2]; 4.0 hr", "value": 78, "unit": "%"}, {"measurement": "AUC (0-24)", "setting": "[5]; human, oral 1 mg fasted, mean", "value": 16.9, "unit": "ng·h/mL"}, {"measurement": "AUC (0-last)", "setting": "[5]; human, oral 1 mg fasted, mean", "value": 22.4, "unit": "ng·h/mL"}, {"measurement": "Cmax", "setting": "[5]; human, oral 1 mg fasted, mean", "value": 1.3, "unit": "ng/mL"}, {"measurement": "T1/2", "setting": "[5]; human, oral 1 mg fasted, mean", "value": 13.8, "unit": "h"}, {"measurement": "Tmax", "setting": "[5]; human, oral 1 mg fasted, mean", "value": 3.1, "unit": "h"}, {"measurement": "AUC (0-24)", "setting": "[5]; human, oral 3 mg fasted, mean", "value": 54.6, "unit": "ng·h/mL"}, {"measurement": "AUC (0-last)", "setting": "[5]; human, oral 3 mg fasted, mean", "value": 65.6, "unit": "ng·h/mL"}, {"measurement": "Cmax", "setting": "[5]; human, oral 3 mg fasted, mean", "value": 5.7, "unit": "ng/mL"}, {"measurement": "T1/2", "setting": "[5]; human, oral 3 mg fasted, mean", "value": 8.8, "unit": "h"}, {"measurement": "Tmax", "setting": "[5]; human, oral 3 mg fasted, mean", "value": 2.8, "unit": "h"}, {"measurement": "AUC (0-24)", "setting": "[5]; human, oral 10 mg fasted, mean", "value": 213, "unit": "ng·h/mL"}, {"measurement": "AUC (0-last)", "setting": "[5]; human, oral 10 mg fasted, mean", "value": 254, "unit": "ng·h/mL"}, {"measurement": "Cmax", "setting": "[5]; human, oral 10 mg fasted, mean", "value": 26.5, "unit": "ng/mL"}, {"measurement": "T1/2", "setting": "[5]; human, oral 10 mg fasted, mean", "value": 13.1, "unit": "h"}, {"measurement": "Tmax", "setting": "[5]; human, oral 10 mg fasted, mean", "value": 1.7, "unit": "h"}, {"measurement": "AUC (0-24)", "setting": "[5]; human, oral 30 mg fasted, mean", "value": 952, "unit": "ng·h/mL"}, {"measurement": "AUC (0-last)", "setting": "[5]; human, oral 30 mg fasted, mean", "value": 1117, "unit": "ng·h/mL"}, {"measurement": "Cmax", "setting": "[5]; human, oral 30 mg fasted, mean", "value": 120, "unit": "ng/mL"}, {"measurement": "T1/2", "setting": "[5]; human, oral 30 mg fasted, mean", "value": 13.1, "unit": "h"}, {"measurement": "Tmax", "setting": "[5]; human, oral 30 mg fasted, mean", "value": 2.1, "unit": "h"}, {"measurement": "AUC (0-24)", "setting": "[5]; human, oral 60 mg fasted, mean", "value": 2330, "unit": "ng·h/mL"}, {"measurement": "AUC (0-last)", "setting": "[5]; human, oral 60 mg fasted, mean", "value": 2608, "unit": "ng·h/mL"}, {"measurement": "Cmax", "setting": "[5]; human, oral 60 mg fasted, mean", "value": 330, "unit": "ng/mL"}, {"measurement": "T1/2", "setting": "[5]; human, oral 60 mg fasted, mean", "value": 12.5, "unit": "h"}, {"measurement": "Tmax", "setting": "[5]; human, oral 60 mg fasted, mean", "value": 1.8, "unit": "h"}, {"measurement": "T1/2", "setting": "[5]; humans, oral dosing, average across five dosing groups", "value": "approximately 12 hours"}]}
